# Laboratory results published in patent US20250368645A1, “BETA CARBOLINE ANALOGUES AS SELECTIVE AND BIASED KAPPA OPIOID RECEPTORS AGONISTS FOR TREATING VARIOUS ASSOCIATED PATHOPHYSIOLOGICAL CONDITIONS” (COUNCIL OF SCIENTIFIC AND INDUSTRIAL RESEARCH, priority 2022, published 2025).
# Like-named read-outs stand apart in the source and are kept apart here.
# Columns and labels:
# human KOR [1] = target: T1, human KOR (Homo sapiens, UniProt P41145); assay: GloSensor assay, Gi-mediated cAMP inhibition in HEK-293T cells transfected with human KOR; assay type: cell-based;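 on agonist at KOR (pIC50): value taken from a statement in the text not a table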
# Target sequence in this assay (P41145 whole entry): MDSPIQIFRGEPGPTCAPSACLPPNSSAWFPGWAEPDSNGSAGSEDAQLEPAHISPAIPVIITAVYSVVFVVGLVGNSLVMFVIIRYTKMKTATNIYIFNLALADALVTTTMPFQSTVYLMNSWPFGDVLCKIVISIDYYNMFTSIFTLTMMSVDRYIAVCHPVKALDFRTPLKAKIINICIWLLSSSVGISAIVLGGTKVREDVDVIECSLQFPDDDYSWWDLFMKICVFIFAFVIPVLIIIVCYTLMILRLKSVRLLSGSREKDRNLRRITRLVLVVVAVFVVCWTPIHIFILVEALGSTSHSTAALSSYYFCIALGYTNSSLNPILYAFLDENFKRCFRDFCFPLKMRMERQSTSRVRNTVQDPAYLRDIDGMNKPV
# MOR = MOR (Homo sapiens, UniProt P35372); assay: GloSensor assay at MOR; assay type: cell-based; conditions: given as Log IC50 (negative values)
# MOR, sequence (P35372 whole entry): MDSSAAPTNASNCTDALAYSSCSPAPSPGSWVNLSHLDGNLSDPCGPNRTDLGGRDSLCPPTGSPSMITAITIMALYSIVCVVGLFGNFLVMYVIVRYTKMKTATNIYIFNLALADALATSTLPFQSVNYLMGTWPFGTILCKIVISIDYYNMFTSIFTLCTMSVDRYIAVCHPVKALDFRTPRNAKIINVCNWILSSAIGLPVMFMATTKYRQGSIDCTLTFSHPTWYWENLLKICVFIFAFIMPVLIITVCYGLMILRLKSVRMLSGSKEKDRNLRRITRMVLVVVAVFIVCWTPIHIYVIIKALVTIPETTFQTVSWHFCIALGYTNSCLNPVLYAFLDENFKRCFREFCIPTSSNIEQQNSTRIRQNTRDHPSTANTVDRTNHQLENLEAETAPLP
# DOR = DOR (Homo sapiens, UniProt P41143); assay: GloSensor assay at DOR; assay type: cell-based; conditions: given as Log IC50 (negative values)
# DOR, sequence (P41143 whole entry): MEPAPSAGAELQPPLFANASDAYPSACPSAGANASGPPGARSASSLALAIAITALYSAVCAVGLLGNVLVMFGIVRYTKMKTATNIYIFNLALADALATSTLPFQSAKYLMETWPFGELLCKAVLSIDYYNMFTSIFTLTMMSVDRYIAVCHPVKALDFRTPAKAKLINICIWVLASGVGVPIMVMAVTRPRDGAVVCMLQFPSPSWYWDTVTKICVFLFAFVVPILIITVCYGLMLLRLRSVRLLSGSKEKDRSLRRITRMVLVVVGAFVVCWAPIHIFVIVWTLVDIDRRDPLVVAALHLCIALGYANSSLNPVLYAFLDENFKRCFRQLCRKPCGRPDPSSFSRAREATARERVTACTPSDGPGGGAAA
# human KOR [2] = target: T1, human KOR; assay: β-arrestin2 Tango assay in HTLA cells transiently transfected with human KOR; assay type: cell-based; conditions: Table 2, KOR; read-out: B-arrestin Tango Assay (pEC50) (converted)
# Target sequence in this assay (P41145 whole entry, added parts left off): as the sequence (P41145 whole entry) above
# C57Bl/6 mice [3] = assay: Tail flick assay for analgesia; assay type: in vivo
# SD rats = assay: Neuropathic pain induced by chronic constriction injury (CCI) of sciatic nerve; assay type: in vivo, rat
# [4] = tested on: paclitaxel (PTX)-treated mice; assay: Paclitaxel-induced peripheral neuropathy model; assay type: in vivo
# C57Bl/6 mice [5] = assay: Hargreaves assay for thermal analgesia after intracerebroventricular administration; assay type: in vivo; conditions: 10 nmol
# [6] = 8abd 10 mg/kg/day p.o., U50488 5 mg/kg/day i.p., 7 days, tested 16 hours after drug administration
# [7] = 8abd 5 and 10 mg/kg p.o., duloxetine 10 mg/kg, 16 days
structure (smiles),measurement,setting,value
"Fc1ccc(-n2c[n+]3ccc4c5ccccc5[nH]c4c3c2-c2ccc(Br)cc2)cc1.[Cl-] [8abd, 1-(4-Bromophenyl)-2-(4-fluorophenyl)-2,11-dihydrolmidazo[1′,5′:1,2]pyrido[3,4-b]indol-4-ium chloride]",G-Protein Bias factor (IC50 -Glosensor/- EC50 - Tango),"human KOR [1]; KOR, GloSensor versus Tango",2.33
same,IC50,"human KOR [1]; Table 2, KOR, read-out: GloSensor Assay (pIC50) (converted)",1.05 nM
same,IC50,"human KOR [1]; given as Log IC50 (negative values), agonist activity, inhibition of FSK-stimulated cAMP, read-out: GloSensor Assay (Log IC50) KOR (converted)",5.01 nM
same,IC50,human KOR [1]; read-out: agonist at KOR (pIC50) (converted),< 31.6 nM
same,IC50,MOR,> 10000 nM
same,IC50,DOR,> 10000 nM
same,EC50,human KOR [2],224 nM
same,tail flick latency time,"C57Bl/6 mice [3]; 10 mg/kg or 5 mg/kg p.o., in comparison to vehicle treated mice",significantly increased
same,duration of the analgesic effect,"C57Bl/6 mice [3]; 8abd 5 and 10 mg/kg p.o., U50488 5 mg/kg i.p.",comparable to U50488
same,analgesic effect in presence of selective KOR antagonist Norbinaltrophamine (NBN),C57Bl/6 mice [3]; NBN 5 mg/kg i.p. (legend: 10 mg/kg i.p.),completely blocked
same,"CCI-induced thermal hyperalgesia, acute administration","SD rats; 8abd 10 mg/kg p.o., U50488 5 mg/kg i.p., Hargreaves",robustly inhibited
same,"CCI-induced mechanical pain, acute administration","SD rats; 8abd 10 mg/kg p.o., U50488 5 mg/kg i.p., von frey",robustly inhibited
same,"CCI-induced mechanical pain, sub-chronic administration",SD rats; [6],significantly blocked
same,"CCI-induced thermal hyperalgesia, sub-chronic administration",SD rats; [6],significantly blocked
same,"mechanical pain (mechanical hyperalgesia, Von frey hair test), chronic administration",[4]; [7],significantly improved
same,"thermal hyperalgesia (Hargreaves test), chronic administration",[4]; [7],significantly improved
same,improvement in both pain behaviors relative to duloxetine,[4]; chronic administration,better improvement in both pain behaviors as compared to duloxetine
same,analgesic activity (paw withdrawal latency),C57Bl/6 mice [5],exhibited analgesic activity
